Key:
[1] = target: T1, mushroom TYR (Agaricus bisporus, UniProt C7FF04); assay: Kinetic study of tyrosinase inhibitory activity; type: biochemical
Target sequence in this assay (C7FF04 1-392 limits assumed): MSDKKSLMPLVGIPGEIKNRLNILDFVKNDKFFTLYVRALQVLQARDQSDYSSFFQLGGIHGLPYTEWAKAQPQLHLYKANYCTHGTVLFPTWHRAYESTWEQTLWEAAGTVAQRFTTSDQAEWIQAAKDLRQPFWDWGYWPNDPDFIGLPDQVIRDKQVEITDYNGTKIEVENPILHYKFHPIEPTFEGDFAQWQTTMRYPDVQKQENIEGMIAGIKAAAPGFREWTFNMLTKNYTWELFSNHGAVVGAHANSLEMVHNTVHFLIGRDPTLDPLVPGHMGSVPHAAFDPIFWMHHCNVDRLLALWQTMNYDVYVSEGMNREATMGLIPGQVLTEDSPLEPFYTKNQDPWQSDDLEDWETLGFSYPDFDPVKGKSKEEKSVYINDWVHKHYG

[2] = target: T1, mushroom TYR; assay: biochemical; conditions: read-out: % inhibition at 25 μg/mL
Target sequence in this assay (C7FF04 2-392): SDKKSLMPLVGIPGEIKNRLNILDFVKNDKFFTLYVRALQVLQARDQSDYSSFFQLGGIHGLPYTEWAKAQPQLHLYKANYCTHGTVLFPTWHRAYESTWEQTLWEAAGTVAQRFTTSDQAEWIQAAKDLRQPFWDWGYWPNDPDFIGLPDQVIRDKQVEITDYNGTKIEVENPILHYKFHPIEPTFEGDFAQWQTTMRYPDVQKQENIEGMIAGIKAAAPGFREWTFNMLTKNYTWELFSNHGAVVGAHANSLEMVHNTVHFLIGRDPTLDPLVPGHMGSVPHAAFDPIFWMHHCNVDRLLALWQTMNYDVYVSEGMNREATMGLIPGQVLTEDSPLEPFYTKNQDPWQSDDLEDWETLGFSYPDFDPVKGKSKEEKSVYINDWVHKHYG

Ki [1]: 1010 nM
inhibition type ([1]; diphenolase activity, L-DOPA oxidation, Lineweaver–Burk plots): mixed-type inhibition
inhibition at 25 µg/mL [2]: 89 ± 3%
Structure (SMILES): COc1ccc(C2CC(c3ccc(C)cc3)=Nc3ccccc3S2)cc1OC (stereo not drawn) [compound 2, 2-(3,4-dimethoxyphenyl)-4-(p-tolyl)-2,3-dihydrobenzo[b][1,4]thiazepine]

From paper PMC10193543 (ACS Omega, 2023)
